According to PMC8086157, “Cryo-EM structure of a thermostable bacterial nanocompartment” (IUCrJ, 2021):

Target: T1, T. maritima encapsulin (TmEnc) (Thermotoga maritima, UniProt Q9WZP2)
T1 construct: gene enc; codon-optimized gene in pET-11a, E. coli Rosetta2 (DE3); no tag mentioned; icosahedral shell without cargo protein; flavin site formed by three subunits
T1 sequence (Q9WZP2 1-265): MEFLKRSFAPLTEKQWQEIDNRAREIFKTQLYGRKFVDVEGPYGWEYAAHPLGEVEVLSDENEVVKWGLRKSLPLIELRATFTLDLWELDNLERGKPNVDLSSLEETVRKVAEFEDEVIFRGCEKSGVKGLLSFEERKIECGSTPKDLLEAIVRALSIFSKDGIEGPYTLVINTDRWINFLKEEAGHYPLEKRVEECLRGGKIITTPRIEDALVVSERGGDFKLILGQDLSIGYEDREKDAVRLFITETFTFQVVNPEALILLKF
Test: cryo-EM structure ([…] Å)
Format: binding
Conditions: co-purified from E. coli lysate through 80°C step; exact flavin identity ambiguous, FMN modelled; exterior site near threefold axis, stacks on Trp87; Tris pH 8.0, 150 mM NaCl

Cc1cc2nc3c(=O)[nH]c(=O)nc-3n(C[C@H](O)[C@H](O)[C@H](O)COP(=O)(O)O)c2cc1C [flavin mononucleotide]
cryo-EM structure (2.0 Å): flavin mononucleotide (FMN) seems to be consistent with the density and has been modeled
